The test system of one data set is HT-29. As to the kind of experiment: Cytotoxicity against human HT29 cells assessed as reduction in cell viability incubated for 72 hrs by SRB assay. It is filed as functional, cell-based. On the technique in general: The SRB assay estimates cell density from bound dye.
Data set [1] relates to A-375. Nature of the data set: Cytotoxicity against human A375 cells assessed as reduction in cell viability incubated for 72 hrs by SRB assay. It is filed as functional, cell-based.
The next data set has as its system NIH3T3. As to the kind of experiment: Cytotoxicity against mouse NIH3T3 cells assessed as reduction in cell viability incubated for 72 hrs by SRB assay. The format is cell-based.
In another data set the test system is FaDu. Nature of the data set: Cytotoxicity against human FaDu cells assessed as reduction in cell viability incubated for 72 hrs by SRB assay. It is filed as functional, cell-based.
Another data set has as its system MCF7. As to the kind of experiment: Cytotoxicity against human MCF7 cells assessed as reduction in cell viability incubated for 72 hrs by SRB assay. It is filed as functional, cell-based.
Data set [2] has as its system A2780. Nature of the data set: Cytotoxicity against human A2780 cells assessed as reduction in cell viability incubated for 72 hrs by SRB assay. It is filed as functional, cell-based.
Data set [3] in a line: in vitro. The conditions noted are these: mouse, NIH3T3 cells versus MCF7 cells.
Description: Selectivity index, ratio of IC50 for mouse NIH3T3 cells to IC50 for human MCF7 cells incubated for 72 hrs by SRB assay
Data set [4] in a line: in vitro. Conditions: mouse, NIH3T3 cells versus A2780 cells; call rule not given here.
The test system of data set [5] is A-375. Nature of the data set: Induction of apoptosis in human A375 cells assessed as apoptotic cells after 48 hrs by annexin V-FITC and propidium iodide staining based flow cytometric analysis. The format is functional. In general terms: A flow cytometer gives signals particle by particle.
For data set [6], the system named is A2780. Nature of the data set: Cell cycle arrest in human A2780 cells assessed as accumulation at G2/M phase after 48 hrs by PI staining based flow cytometric analysis (reference value: 11.25 %). It is filed as functional.
A short description of data set [7]: in vitro. The conditions noted are these: mouse, NIH3T3 cells versus HT29 cells.
Description: Selectivity index, ratio of IC50 for mouse NIH3T3 cells to IC50 for human HT29 cells incubated for 72 hrs by SRB assay
Data set [8] relates to A-375. Nature of the data set: Induction of apoptosis in human A375 cells assessed as late apoptotic cells after 48 hrs by annexin V-FITC and propidium iodide staining based flow cytometric analysis. The format is functional.
The nature of data set [9]: in vitro. Conditions: mouse, NIH3T3 cells versus FaDu cells.
Description: Selectivity index, ratio of IC50 for mouse NIH3T3 cells to IC50 for human FaDu cells incubated for 72 hrs by SRB assay
Data set [10] has as its system A2780. Nature of the data set: Cell cycle arrest in human A2780 cells assessed as accumulation at S phase after 48 hrs by PI staining based flow cytometric analysis (reference value: 34.22 %). The format is functional.
The test system of data set [11] is A-375. Nature of the data set: Induction of apoptosis in human A375 cells assessed as necrotic cells after 48 hrs by annexin V-FITC and propidium iodide staining based flow cytometric analysis. It is filed as functional.
Data set [12] deals with A2780. As to the kind of experiment: Cell cycle arrest in human A2780 cells assessed as apoptotic cells after 48 hrs by PI staining based flow cytometric analysis (reference value: 0.48 %). It is filed as functional.
In data set [13] the test system is A2780. As to the kind of experiment: Cell cycle arrest in human A2780 cells assessed as accumulation at G1 phase after 48 hrs by PI staining based flow cytometric analysis (reference value: 54.53 %). It is filed as functional.
Data set [14] in a line: Selectivity index, ratio of IC50 for mouse NIH3T3 cells to IC50 for human A375 cells incubated for 72 hrs by SRB assay. The format is toxicity. Conditions: NIH3T3 cells versus A375 cells, read-out: Ratio IC50.
Data set [15] can be described thus: Drug uptake in nucleus of human A2780 cells at 0.054 mM incubated for 1 hr with compound and Hoechst 33342 and followed by further incubation with Rhodamine123 for 20 mins by fluorescence microscopic method. The format is ADME, subcellular. The conditions noted are these: a2780, 1.333 h, 54 µM, time 80 min.
Data set [16] in a line: Drug uptake in mitochondria of human A2780 cells at 0.054 mM incubated for 1 hr with compound and Hoechst 33342 and followed by further incubation with Rhodamine123 for 20 mins by fluorescence microscopic method. The conditions noted are these: a2780, 1.333 h, 54 µM, time 80 min. It is filed as ADME.
[17] abbreviates: Homo sapiens, HT-29, 72 h, read-out: IC50.
Where [18] appears, read: Homo sapiens, A-375, 72 h, read-out: IC50.
Where [19] appears, read: Mus musculus, NIH3T3, 72 h, read-out: IC50.
[20] abbreviates: Homo sapiens, FaDu, 72 h, read-out: IC50.
Setting [21] is: Homo sapiens, MCF7, 72 h, read-out: IC50.
Where [22] appears, read: Homo sapiens, A2780, 72 h, read-out: IC50.

Each structure is given as a SMILES string.

From ChEMBL document CHEMBL4765330, “Synthesis of some steroidal mitocans of nanomolar cytotoxicity acting by apoptosis” (Eur J Med Chem, 2020) come the findings set out here.

The term IC50 denotes the concentration that inhibits the measured activity by half.

Regarding `C[C@]12C=CC(=O)C=C1CC[C@@H]1[C@@H]2C(=O)C[C@@]2(C)[C@H]1CC[C@]2(O)C(=O)CO` [PREDNISONE], the IC50 in the data set on HT-29 (setting [17]), with A-375 [1] (setting [18]), with NIH3T3 (setting [19]), in the data set on FaDu (setting [20]) and in the data set on MCF7 (setting [21]) was more than 30000 nM throughout.
Turning to `C[C@]12CC[C@H](O)C=C1CC[C@@H]1[C@@H]2CC[C@]2(C)C(c3cccnc3)=CC[C@@H]12`, the IC50 result with HT-29 (ht-29), in the data set on A-375 [1] (a-375), with NIH3T3 (nih3t3), in the data set on FaDu (fadu), with A2780 [2] (a2780) and with MCF7 (mcf7) was “Nd(Insoluble)” in each case.
Consider `CCN(CC)c1ccc2c(-c3ccccc3C(=O)OCC(=O)[C@@]3(O)CC[C@H]4[C@@H]5CCC6=CC(=O)C=C[C@@]6(C)[C@H]5C(=O)C[C@@]43C)c3ccc(=[N+](CC)CC)cc-3oc2c1.[Cl-]`, for which the selectivity ratio at 72 h worked out at 7.3 in “in vitro [3]”; 5.2 in “in vitro [4]”; 2.9 in the data set “in vitro [7]”; 4.1 in “in vitro [9]”; 1.8 in data set [14]. Moreover, the IC50 with HT-29 (setting [17]) amounted to 600 nM; in the data set on A-375 [1] (setting [18]), 100 nM; in the data set on NIH3T3 (setting [19]), 1800 nM; in the data set with FaDu (setting [20]), 400 nM; with A2780 [2] (setting [22]), 300 nM; with MCF7 (setting [21]), 200 nM. Moreover, the Activity in the data set with A-375 [5] is recorded as 48%; with A2780 [6], 0%; with A-375 [8], 14%; in the data set on A2780 [10], 87.22%; with A-375 [11], 2%; in the data set with A2780 [12], 37.36%. Further, in the data set on A2780 [13], the Activity was determined as 12.78%.
Regarding `CCN(CC)c1ccc2c(-c3ccccc3C(=O)O[C@H]3CC[C@@]4(C)C(=CC[C@@H]5[C@@H]4CC[C@]4(C)C(c6cccnc6)=CC[C@@H]54)C3)c3ccc(=[N+](CC)CC)cc-3oc2c1`, the selectivity ratio at 72 h in the data set “in vitro [3]” was 1.6; in the data set “in vitro [4]”, 1.8; in the data set “in vitro [7]” it was 1.1; in the data set “in vitro [9]”, 1.8; in data set [14] it was 1.7. In addition, the IC50 in the data set with HT-29 (setting [17]) was 200 nM; with A-375 [1] (setting [18]), 200 nM; with NIH3T3 (setting [19]) it was 300 nM; with FaDu (setting [20]), 200 nM; in the data set with A2780 [2] (setting [22]) it was 100 nM; in the data set on MCF7 (setting [21]), 200 nM.
Turning to `CCN(CC)c1ccc2c(-c3ccccc3C(=O)O[C@H]3CC[C@@]4(C)C(=CC[C@H]5[C@@H]6CC[C@H]([C@H](C)CCCC(C)C)[C@@]6(C)CC[C@@H]54)C3)c3ccc(=[N+](CC)CC)cc-3oc2c1.[Cl-]`, the IC50 result with HT-29 (ht-29), with A-375 [1] (a-375), in the data set with NIH3T3 (nih3t3), in the data set with FaDu (fadu), in the data set on A2780 [2] (a2780) and in the data set with MCF7 (mcf7) was “Nd(Insoluble)” throughout.
Consider `CN[C@@H]1C[C@H]2O[C@@](C)([C@@H]1OC)n1c3ccccc3c3c4c(c5c6ccccc6n2c5c31)C(=O)NC4` [STAUROSPORINE], for which the IC50 in the data set with NIH3T3 (setting [19]) is 8 nM.
As for `C=C(c1ccc(C(=O)O)cc1)c1cc2c(cc1C)C(C)(C)CCC2(C)C` [BEXAROTENE], the selectivity ratio at 72 h in “in vitro [3]” was 1.8; in the data set “in vitro [4]”, 0.6; in “in vitro [9]”, 0.6; in data set [14] it was 0.7. In addition, the IC50 was more than 30000 nM in the data set on HT-29 (setting [17]); 28400 nM with A-375 [1] (setting [18]); 18700 nM in the data set with NIH3T3 (setting [19]); 29800 nM in the data set on FaDu (setting [20]); 26500 nM in the data set on A2780 [2] (setting [22]); 10600 nM in the data set with MCF7 (setting [21]).
For `CCN(CC)c1ccc2c(-c3ccccc3C(=O)O[C@H]3CC[C@H]4[C@@H]5CCC6=CC(=O)CC[C@]6(C)[C@H]5CC[C@]34C)c3ccc(=[N+](CC)CC)cc-3oc2c1.[Cl-]`, the selectivity ratio at 72 h in “in vitro [3]” came to 3.1; in the data set “in vitro [4]” it was 2.2; in the data set “in vitro [7]”, 1.5; in the data set “in vitro [9]”, 1; in data set [14], 1.1. The IC50 in the data set with HT-29 (setting [17]) is 120 nM; in the data set with A-375 [1] (setting [18]), 160 nM; with NIH3T3 (setting [19]), 200 nM; in the data set with FaDu (setting [20]), 200 nM; in the data set on A2780 [2] (setting [22]), 80 nM; with MCF7 (setting [21]), 60 nM. Moreover, the Drug uptake result in data set [15] was “Not Active”; in [16], “Active”. Also, the Activity worked out at 5% with A-375 [5]; 3.48% in the data set on A2780 [6]; 12% in the data set on A-375 [8]; 44.74% in the data set on A2780 [10]; 20% in the data set with A-375 [11]; 3.29% in the data set with A2780 [12]. Further, in the data set with A2780 [13], the Activity amounted to 51.77%.
As to `CCN(CC)c1ccc2c(-c3ccccc3C(=O)N3CCNCC3)c3ccc(=[N+](CC)CC)cc-3oc2c1`, the IC50 was more than 30000 nM in the data set with HT-29 (setting [17]); more than 30000 nM in the data set on A-375 [1] (setting [18]); more than 30000 nM in the data set on NIH3T3 (setting [19]); more than 30000 nM in the data set on FaDu (setting [20]); 26400 nM in the data set on A2780 [2] (setting [22]); 17800 nM with MCF7 (setting [21]). Also, in the data set “in vitro [4]”, the selectivity ratio at 72 h is 1.1.
`C=C(c1ccc(C(=O)N2CCN(C(=O)c3ccccc3-c3c4ccc(=[N+](CC)CC)cc-4oc4cc(N(CC)CC)ccc34)CC2)cc1)c1cc2c(cc1C)C(C)(C)CCC2(C)C.[Cl-]`: the IC50 entry with HT-29 (ht-29), with A-375 [1] (a-375), in the data set with NIH3T3 (nih3t3), in the data set with FaDu (fadu), in the data set on A2780 [2] (a2780) and in the data set with MCF7 (mcf7) was “Nd(Insoluble)” each time.
Regarding `COc1cccc2c1C(=O)c1c(O)c3c(c(O)c1C2=O)C[C@@](O)(C(=O)CO)C[C@@H]3O[C@H]1C[C@H](N)[C@H](O)[C@H](C)O1` [DOXORUBICIN], the IC50 is 900 nM in the data set on HT-29 (setting [17]), 400 nM in the data set with NIH3T3 (setting [19]) and 10 nM with A2780 [2] (setting [22]).
